From ChEMBL document CHEMBL3351363 (J Med Chem, 2014)

Experiments:
[1] = target: T1, Muscarinic acetylcholine receptor M2 (Homo sapiens, UniProt P08172); assay: Displacement of [3H]NMS from human M2 receptor expressed in CHO cells by microplate scintillation counting based radioligand binding assay; assay type: cell-based
T1 sequence (P08172 whole entry): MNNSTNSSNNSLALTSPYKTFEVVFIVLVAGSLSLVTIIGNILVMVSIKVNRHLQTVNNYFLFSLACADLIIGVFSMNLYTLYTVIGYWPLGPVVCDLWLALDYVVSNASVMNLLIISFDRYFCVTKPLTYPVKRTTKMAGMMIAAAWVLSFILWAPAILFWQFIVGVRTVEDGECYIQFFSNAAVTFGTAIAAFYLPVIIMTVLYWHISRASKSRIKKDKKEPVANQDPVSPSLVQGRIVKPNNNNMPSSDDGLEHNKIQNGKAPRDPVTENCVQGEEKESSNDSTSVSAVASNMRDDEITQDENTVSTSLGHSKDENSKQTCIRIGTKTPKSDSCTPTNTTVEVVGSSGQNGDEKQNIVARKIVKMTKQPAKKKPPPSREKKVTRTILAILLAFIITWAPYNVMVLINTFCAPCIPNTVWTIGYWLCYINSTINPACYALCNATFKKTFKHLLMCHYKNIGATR

[2] = target: T2, Muscarinic acetylcholine receptor M4 (Homo sapiens, UniProt P08173); assay: Antagonist activity at human M4 receptor expressed in HEK293T cells assessed as inhibition of carbachol-induced response by beta-arrestin engagement assay; assay type: cell-based, HEK-293T
T2 sequence (P08173 whole entry): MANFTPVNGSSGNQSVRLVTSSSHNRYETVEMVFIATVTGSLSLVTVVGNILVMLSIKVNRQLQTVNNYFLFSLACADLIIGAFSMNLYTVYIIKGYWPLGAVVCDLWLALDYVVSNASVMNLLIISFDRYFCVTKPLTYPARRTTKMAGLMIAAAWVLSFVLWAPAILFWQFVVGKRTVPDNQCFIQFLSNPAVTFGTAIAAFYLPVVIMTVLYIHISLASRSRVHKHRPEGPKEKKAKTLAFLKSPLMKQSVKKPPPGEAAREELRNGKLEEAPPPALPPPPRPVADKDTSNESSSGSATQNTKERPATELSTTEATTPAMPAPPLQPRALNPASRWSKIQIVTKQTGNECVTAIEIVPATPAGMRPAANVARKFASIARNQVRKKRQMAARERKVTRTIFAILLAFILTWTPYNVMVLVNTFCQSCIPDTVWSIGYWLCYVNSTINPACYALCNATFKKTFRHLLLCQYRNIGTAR

[3] = target: T3, Muscarinic acetylcholine receptor M1 (Homo sapiens, UniProt P11229)
T3 sequence (P11229 whole entry): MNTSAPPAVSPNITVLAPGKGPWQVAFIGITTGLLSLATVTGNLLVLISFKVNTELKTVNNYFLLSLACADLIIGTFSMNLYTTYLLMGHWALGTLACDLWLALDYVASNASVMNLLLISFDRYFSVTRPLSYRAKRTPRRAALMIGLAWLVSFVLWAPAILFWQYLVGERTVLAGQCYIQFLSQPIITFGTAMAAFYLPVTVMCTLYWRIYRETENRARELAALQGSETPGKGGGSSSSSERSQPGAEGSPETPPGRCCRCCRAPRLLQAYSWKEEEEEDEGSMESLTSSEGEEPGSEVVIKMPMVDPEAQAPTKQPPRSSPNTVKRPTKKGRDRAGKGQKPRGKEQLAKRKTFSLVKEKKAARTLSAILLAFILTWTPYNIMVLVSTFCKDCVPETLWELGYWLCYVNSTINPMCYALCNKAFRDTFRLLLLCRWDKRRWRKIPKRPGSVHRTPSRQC

[4] = target: T3, Muscarinic acetylcholine receptor M1; assay: Positive modulatory activity at human M1 receptor expressed in HEK293T cells assessed as effect on carbachol-induced response by BRET based Gq protein engagement assay; assay type: cell-based, HEK-293T
[5] = target: T4, Muscarinic acetylcholine receptor M4 (Homo sapiens) (UniProt P08173); assay: Antagonist activity at human M4 receptor expressed in HEK293T cells assessed as inhibition of carbachol-induced response by BRET based Gi protein activation assay relative to untreated control; conditions: HEK-293T
T4 sequence (whole entry): T2 sequence (P08173 whole entry)

[6] = target: T5, Muscarinic acetylcholine receptor M1 (Homo sapiens) (UniProt P11229); assay: Positive modulatory activity at human M1 receptor expressed in HEK293T cells assessed as effect on carbachol-induced response by BRET based Gq protein activation assay relative to untreated control; assay type: cell-based; conditions: HEK-293T
T5 sequence (whole entry): T3 sequence (P11229 whole entry)

[7] = target: T3, Muscarinic acetylcholine receptor M1; assay: Displacement of [3H]NMS from human M1 receptor expressed in CHO cells by microplate scintillation counting based radioligand binding assay; assay type: cell-based
[8] = target: T4, Muscarinic acetylcholine receptor M4 (Homo sapiens); assay: Antagonist activity at human M4 receptor expressed in HEK293T cells assessed as inhibition of carbachol-induced response by beta-arrestin engagement assay relative to untreated control; assay type: cell-based; conditions: HEK-293T
[9] = target: Muscarinic acetylcholine receptor M3 (Homo sapiens, UniProt P20309); assay: Displacement of [3H]NMS from human M3 receptor expressed in CHO cells by microplate scintillation counting based radioligand binding assay; assay type: cell-based
Muscarinic acetylcholine receptor M3, sequence (P20309 whole entry): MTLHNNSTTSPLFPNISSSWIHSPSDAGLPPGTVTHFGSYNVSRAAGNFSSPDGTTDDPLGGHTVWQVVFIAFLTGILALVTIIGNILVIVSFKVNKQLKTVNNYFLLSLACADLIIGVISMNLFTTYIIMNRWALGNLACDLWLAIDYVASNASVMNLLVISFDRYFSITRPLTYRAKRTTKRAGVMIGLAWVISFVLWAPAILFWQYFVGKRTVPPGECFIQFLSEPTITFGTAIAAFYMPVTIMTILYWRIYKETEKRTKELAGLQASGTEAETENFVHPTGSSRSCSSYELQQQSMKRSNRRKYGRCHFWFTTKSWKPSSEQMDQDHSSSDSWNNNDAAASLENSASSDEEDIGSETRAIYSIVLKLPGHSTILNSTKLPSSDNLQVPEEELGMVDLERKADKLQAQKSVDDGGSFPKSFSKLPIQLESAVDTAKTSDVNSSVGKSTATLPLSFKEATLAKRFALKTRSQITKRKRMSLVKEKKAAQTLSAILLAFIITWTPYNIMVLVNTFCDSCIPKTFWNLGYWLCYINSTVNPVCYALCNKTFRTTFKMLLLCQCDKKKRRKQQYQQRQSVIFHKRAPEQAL

[10] = target: T4, Muscarinic acetylcholine receptor M4 (Homo sapiens); assay: Agonist activity at human M4 receptor expressed in HEK293T cells by BRET based Gi protein activation assay relative to carbachol; conditions: HEK-293T
[11] = target: T3, Muscarinic acetylcholine receptor M1; assay: Agonist activity at human M1 receptor expressed in HEK293T cells by BRET based Gq protein engagement assay
[12] = target: T2, Muscarinic acetylcholine receptor M4; assay: Antagonist activity at human M4 receptor expressed in HEK293T cells assessed as inhibition of carbachol-induced response by BRET based Gq protein engagement assay; assay type: cell-based, HEK-293T
[13] = target: T2, Muscarinic acetylcholine receptor M4; assay: Displacement of [3H]NMS from human M4 receptor expressed in CHO cells by microplate scintillation counting based radioligand binding assay; assay type: cell-based
[14] = target: T4, Muscarinic acetylcholine receptor M4 (Homo sapiens); assay: Agonist activity at human M4 receptor expressed in HEK293T cells by BRET based Gq protein engagement assay relative to carbachol; assay type: cell-based; conditions: HEK-293T
[15] = target: T3, Muscarinic acetylcholine receptor M1; assay: Positive modulatory activity at human M1 receptor expressed in HEK293T cells assessed as effect on carbachol-induced response by BRET based Gq protein activation assay; assay type: cell-based, HEK-293T
[16] = target: T5, Muscarinic acetylcholine receptor M1 (Homo sapiens); assay: Agonist activity at human M1 receptor expressed in HEK293T cells by BRET based Gq protein engagement assay relative carbachol; assay type: cell-based; conditions: HEK-293T
[17] = target: T4, Muscarinic acetylcholine receptor M4 (Homo sapiens); assay: Antagonist activity at human M4 receptor expressed in HEK293T cells assessed as inhibition of carbachol-induced response by BRET based Gq protein engagement assay relative to untreated control; assay type: cell-based; conditions: HEK-293T
[18] = target: T2, Muscarinic acetylcholine receptor M4
[19] = target: T5, Muscarinic acetylcholine receptor M1 (Homo sapiens); assay: Agonist activity at human M1 receptor expressed in HEK293T cells by BRET based Gq protein activation assay relative to carbachol; assay type: cell-based; conditions: HEK-293T
[20] = target: T6, Muscarinic acetylcholine receptor M5 (Homo sapiens, UniProt P08912); assay: Displacement of [3H]NMS from human M5 receptor expressed in CHO cells by microplate scintillation counting based radioligand binding assay; assay type: cell-based
T6 sequence (P08912 whole entry): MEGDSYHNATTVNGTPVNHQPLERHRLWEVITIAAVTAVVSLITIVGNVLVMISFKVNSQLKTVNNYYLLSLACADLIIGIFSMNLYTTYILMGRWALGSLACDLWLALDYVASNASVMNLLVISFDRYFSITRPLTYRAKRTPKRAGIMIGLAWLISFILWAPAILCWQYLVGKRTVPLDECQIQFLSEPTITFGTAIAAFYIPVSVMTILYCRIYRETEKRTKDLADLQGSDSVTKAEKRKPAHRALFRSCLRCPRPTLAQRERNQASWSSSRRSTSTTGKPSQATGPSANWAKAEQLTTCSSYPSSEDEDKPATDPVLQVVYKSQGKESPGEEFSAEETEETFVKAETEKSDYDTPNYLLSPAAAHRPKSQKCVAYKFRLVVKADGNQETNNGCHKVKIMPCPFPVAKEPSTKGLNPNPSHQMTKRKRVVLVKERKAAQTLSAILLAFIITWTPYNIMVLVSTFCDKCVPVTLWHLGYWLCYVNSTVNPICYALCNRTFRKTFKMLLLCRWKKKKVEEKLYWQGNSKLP

[21] = target: T3, Muscarinic acetylcholine receptor M1; assay: Agonist activity at human M1 receptor expressed in HEK293T cells by BRET based Gq protein activation assay; assay type: cell-based, HEK-293T
[22] = target: T5, Muscarinic acetylcholine receptor M1 (Homo sapiens); assay: Positive modulatory activity at human M1 receptor expressed in HEK293T cells assessed as effect on carbachol-induced response by BRET based Gq protein engagement assay relative to untreated control; assay type: cell-based; conditions: HEK-293T
[23] = target: T5, Muscarinic acetylcholine receptor M1 (Homo sapiens); assay: Agonist activity at human M1 receptor expressed in HEK293T cells by BRET based beta-arrestin engagement assay relative to carbachol; assay type: cell-based; conditions: HEK-293T
[24] = target: T3, Muscarinic acetylcholine receptor M1; assay: Agonist activity at human M1 receptor expressed in HEK293T cells by BRET based beta-arrestin engagement assay
[25] = target: T3, Muscarinic acetylcholine receptor M1; assay type: cell-based, HEK-293T
[26] = target: T3, Muscarinic acetylcholine receptor M1; assay type: cell-based, HEK-293T; remark: listed apart in the source
[27] = target: T2, Muscarinic acetylcholine receptor M4; assay: Agonist activity at human M4 receptor expressed in HEK293T cells by BRET based Gq protein activation assay

Structure (SMILES)	Ki [1] [µM]	Imax [5] [%]	Ki [7] [µM]	Imax [8] [%]	Ki [9] [µM]	Ki [13] [µM]	Imax [17] [%]	Ki [20] [µM]	other results
O=C1CCc2ccccc2N1CCCN1CCC(CCCCCCCO)CC1	0.209	54	0.355	93	0.631	0.389	< 100	3.09	IC50 [2]: 0.794 µM; IC50 [3]: 1.15 µM; EC50 [4]: 0.0692 µM; Emax [6]: 44%; Emax [10]: < 0%; EC50 [11]: 0.229 µM; IC50 [12]: 1.48 µM; Emax [14]: < 0%; EC50 [15]: 0.0851 µM; Emax [16]: 76%; IC50 [18]: 0.589 µM; Emax [19]: 73%; EC50 [21]: 0.1 µM; Emax [22]: 21%
O=C1CCc2ccccc2N1CCCN1CCC(CCCCCCCCCO)CC1	0.214	< 100	0.282	90	0.2	0.155	92	0.851	IC50 [2]: 0.813 µM; Emax [23]: 50%; IC50 [3]: 0.49 µM; Emax [10]: < 0%; EC50 [24]: 245 µM; IC50 [12]: 0.589 µM; Emax [14]: < 0%; Emax [16]: < 0%; IC50 [25]: 19.5 µM; IC50 [18]: 3.63 µM; Emax [19]: 22%; EC50 [21]: 0.295 µM; IC50 [26]: 10 µM
CN1CCN(CC(=O)N2c3ccccc3C(=O)Nc3cccnc32)CC1	–	< 100	–	67	–	–	< 100	–	–
CN1CCC=C(c2nsnc2OCCCCCCCCCCCC2CCN(CCCN3C(=O)CCc4ccccc43)CC2)C1	0.0891	–	0.011	–	0.01	0.00661	–	0.00871	–
O=C1CCc2ccccc2N1CCCN1CCC(CCCCCCCCCCCO)CC1	0.417	–	0.123	–	0.575	0.112	–	0.347	–
CN1CCC=C(c2nsnc2OCCCCCCCCCC2CCN(CCCN3C(=O)CCc4ccccc43)CC2)C1	0.0017	–	0.00102	< 100	0.0011	0.00107	63	0.00295	IC50 [2]: 95.5 µM; Emax [23]: 81%; Emax [10]: > 100%; EC50 [24]: 61.7 µM; IC50 [12]: 2.45 µM; Emax [14]: < 0%; Emax [16]: < 0%; IC50 [25]: 148 µM; EC50 [27]: 66.1 µM; Emax [19]: 31%; EC50 [21]: 0.871 µM; IC50 [26]: 14.1 µM
CN1CCC=C(c2nsnc2OCCCCCCCCCOc2nsnc2C2=CCCN(C)C2)C1	0.00316	–	0.00166	–	0.00288	0.000776	–	0.00398	–
CN1CCC=C(c2nsnc2OCCCC2CCN(CCCN3C(=O)CCc4ccccc43)CC2)C1	0.0661	–	0.0776	–	0.0933	0.0263	–	0.102	–
O=C1CCc2ccccc2N1CCCN1CCC(CCCCCCCCCC2CCN(CCCN3C(=O)CCc4ccccc43)CC2)CC1	0.0794	–	0.0295	–	0.0575	0.0324	–	0.049	–
O=C1CCc2ccccc2N1CCCN1CCC(CCCCCO)CC1	0.603	38	0.468	< 100	1.91	0.447	72	4.57	IC50 [2]: 1.62 µM; IC50 [3]: 0.0288 µM; Emax [10]: 20%; EC50 [11]: 0.112 µM; IC50 [12]: 12.3 µM; Emax [16]: 58%; IC50 [25]: 10 µM; EC50 [27]: 2 µM; IC50 [18]: 3.31 µM; Emax [19]: 53%; EC50 [21]: 0.204 µM; IC50 [26]: 26.3 µM
O=C1CCc2ccccc2N1CCCN1CCC(CCCCCCCCCCCCCO)CC1	0.479	–	0.186	–	0.339	0.0955	–	0.339	–
CN1CCC=C(c2nsnc2OCCCCCCCCCCCCCC2CCN(CCCN3C(=O)CCc4ccccc43)CC2)C1	0.0851	–	0.0447	–	0.0447	0.0145	–	0.0309	–
O=C1CCc2ccccc2N1CCCN1CCC(CCCO)CC1	3.24	–	2.51	–	11.7	0.589	–	14.5	–
CN1[C@@H]2C[C@@H](OC(=O)[C@H](CO)c3ccccc3)C[C@H]1[C@@H]1O[C@@H]12	–	< 100	–	77	–	–	< 100	–	–
